Legend:
[1] = Inhibition of Tel-fused LYN expressed in mouse BAF3 cells
[2] = Inhibition of Tel-fused LCK expressed in mouse BAF3 cells
[3] = Inhibition of Tel-fused SRC expressed in mouse BAF3 cells
[4] = Inhibition of Tel-fused KDR expressed in mouse BAF3 cells

Which IC50 [1] does the source give for `Cc1ccc(C(=O)Nc2cccc(C(F)(F)F)c2)cc1Nc1nc2ccccc2n1-c1cc(NCCN2CCN(C)CC2)ncn1` [4-methyl-3-(1-(6-(2-(4-methylpiperazin-1-yl)ethylamino)pyrimidin-4-yl)-1H-benzo[d]imidazol-2-ylamino)-N-(3-(trifluoromethyl)phenyl)benzamide] here?
The IC50 was 113 nM.

And the IC50 [2]?
The IC50 was 45 nM.

And the IC50 [3]?
The IC50 was 527 nM.

And the IC50 [4]?
The IC50 was 185 nM.

With `Cc1cccc(NC(=O)c2ccc(C)c(Nc3nc4ccccc4n3-c3cc(NCCN4CCN(C)CC4)ncn3)c2)c1` [4-methyl-3-(1-(6-(2-(4-methylpiperazin-1-yl)ethylamino)pyrimidin-4-yl)-1H-benzo[d]imidazol-2-ylamino)-N-m-tolylbenzamide] as the compound, how does the IC50 [1] read?
Its IC50 is 1660 nM.

What about the IC50 [2] of the same compound?
Its IC50 is 762 nM.

And the IC50 [3]?
The IC50 was 1540 nM.

And the IC50 [4]?
Its IC50 is 2090 nM.

Which IC50 [1] does the source give for `Cc1ccc(C(=O)Nc2cccc(C(F)(F)F)c2)cc1Nc1nc2ccccc2n1-c1cc(NCCCN2CCN(C)CC2)ncn1` [4-methyl-3-(1-(6-(3-(4-methylpiperazin-1-yl)propylamino)pyrimidin-4-yl)-1H-benzo[d]imidazol-2-ylamino)-N-(3-(trifluoromethyl)phenyl)benzamide] here?
Its IC50 is 84 nM.

And the IC50 [2]?
Its IC50 is 23 nM.

And the IC50 [3]?
The IC50 was 364 nM.

And the IC50 [4]?
The IC50 was 117 nM.

Which IC50 [1] does the source give for `Cc1cccc(NC(=O)c2ccc(C)c(Nc3nc4ccccc4n3-c3cc(NCCCN4CCN(C)CC4)ncn3)c2)c1` [4-methyl-3-(1-(6-(3-(4-methylpiperazin-1-yl)propylamino)pyrimidin-4-yl)-1H-benzo[d]imidazol-2-ylamino)-N-m-tolylbenzamide] here?
The IC50 was 1230 nM.

What about the IC50 [2] of the same compound?
Its IC50 is 337 nM.

What about the IC50 [3] of the same compound?
Its IC50 is 1410 nM.

And the IC50 [4]?
The IC50 was 1110 nM.

For `CCN(CC)CCNc1cc(-n2c(Nc3cc(NC(=O)c4cccc(C(F)(F)F)c4)ccc3C)nc3ccccc32)ncn1` [N-(3-(1-(6-(2-(diethylamino)ethylamino)pyrimidin-4-yl)-1H-benzo[d]imidazol-2-ylamino)-4-methylphenyl)-3-(trifluoromethyl)benzamide], which IC50 [1] is on record?
Its IC50 is 642 nM.

And the IC50 [2]?
The IC50 was 418 nM.

What about the IC50 [3] of the same compound?
Its IC50 is 398 nM.

What about the IC50 [4] of the same compound?
Its IC50 is 1730 nM.

For `Cc1ccc(NC(=O)c2cccc(C(F)(F)F)c2)cc1Nc1nc2ccccc2n1-c1cc(NCCN)ncn1` [N-(3-(1-(6-(2-aminoethylamino)pyrimidin-4-yl)-1H-benzo[d]imidazol-2-ylamino)-4-methylphenyl)-3-(trifluoromethyl)benzamide], which IC50 [1] is on record?
The IC50 was 1470 nM.

What about the IC50 [2] of the same compound?
The IC50 was 470 nM.

What about the IC50 [3] of the same compound?
Its IC50 is 1290 nM.

And the IC50 [4]?
The IC50 was 1750 nM.

For `Cc1ccc(NC(=O)c2cccc(C(F)(F)F)c2)cc1Nc1nc2ccccc2n1-c1cc(NCCO)ncn1` [N-(3-(1-(6-(2-hydroxyethylamino)pyrimidin-4-yl)-1H-benzo[d]imidazol-2-ylamino)-4-methylphenyl)-3-(trifluoromethyl)benzamide], which IC50 [1] is on record?
Its IC50 is 400 nM.

What about the IC50 [2] of the same compound?
The IC50 was 229 nM.

And the IC50 [3]?
The IC50 was 1700 nM.

What about the IC50 [4] of the same compound?
The IC50 was 590 nM.

For `Cc1ccc(NC(=O)c2cccc(C(F)(F)F)c2)cc1Nc1nc2ccccc2n1-c1cc(NCCCN)ncn1` [N-(3-(1-(6-(3-aminopropylamino)pyrimidin-4-yl)-1H-benzo[d]imidazol-2-ylamino)-4-methylphenyl)-3-(trifluoromethyl)benzamide], which IC50 [1] is on record?
Its IC50 is 1120 nM.

What about the IC50 [2] of the same compound?
The IC50 was 387 nM.

What about the IC50 [3] of the same compound?
The IC50 was 1320 nM.

What about the IC50 [4] of the same compound?
The IC50 was 1470 nM.

Which IC50 [1] does the source give for `Cc1ccc(NC(=O)c2cccc(C(F)(F)F)c2)cc1Nc1nc2ccccc2n1-c1cc(NCCCCN(C)C)ncn1` [N-(3-(1-(6-(4-(dimethylamino)butylamino)pyrimidin-4-yl)-1H-benzo[d]imidazol-2-ylamino)-4-methylphenyl)-3-(trifluoromethyl)benzamide] here?
The IC50 was 399 nM.

What about the IC50 [2] of the same compound?
Its IC50 is 108 nM.

And the IC50 [3]?
Its IC50 is 1210 nM.

And the IC50 [4]?
The IC50 was 1360 nM.

Which IC50 [1] does the source give for `Cc1ccc(NC(=O)c2cccc(C(F)(F)F)c2)cc1Nc1nc2ccccc2n1-c1cc(NCCCCN)ncn1` [N-(3-(1-(6-(4-aminobutylamino)pyrimidin-4-yl)-1H-benzo[d]imidazol-2-ylamino)-4-methylphenyl)-3-(trifluoromethyl)benzamide] here?
The IC50 was 457 nM.

And the IC50 [2]?
Its IC50 is 366 nM.

And the IC50 [3]?
Its IC50 is 1660 nM.

And the IC50 [4]?
The IC50 was 599 nM.
